Source: patent publication US20240108684A1, “DOSING REGIMENS FOR TREATMENT OF FUNGAL INFECTIONS” (priority 2016, published 2024)
Where two headings read alike, the source gives them in different places. *1 amine or outer side, *2 acyl side, *3 side chain or, on linkers, in order; H or OH if unused. Where a SMILES comes first, the peptide text is derived from it. Bridges are numbered along the chain shown (N, C = ends). [ ]: non-standard residue; d: D form. The star is where a group is joined. Orn(4R-OH,5R-OCH2CH2NMe3+) = C[N+](C)(C)CCO[C@@H](N[*:3])[C@H](O)C[C@H](N[*:1])C(=O)[*:2]; pTerphenylCO(4''-OnC5H11) = CCCCCOc1ccc(-c2ccc(-c3ccc(C(=O)*)cc3)cc2)cc1; hTyr(3S-OH,4S-OH) = N[C@H](C(=O)O)[C@H](O)[C@@H](O)c1ccc(O)cc1; Pro(3S-OH,4S-Me) = C[C@H]1CN[C@H](C(=O)O)[C@H]1O; Hyp = O=C(O)[C@@H]1C[C@@H](O)CN1

Assays:
[1] = test system: azole-resistant C. albicans R357 strain; assay: MIC and CLSI susceptibility, azole-resistant C. albicans R357; assay type: cell-based, Candida albicans; settings: Candida albicans
C. glabrata [2] = assay: Mutant prevention concentration (MPC); assay type: cell-based, Candida glabrata
Text: As used herein, the term “mutant prevention concentration” or “MPC” refers to the concentration of a drug sufficient to suppress the development of all but very rare spontaneous mutants. The range of drug concentrations between the MIC and MPC represents a mutant selection window wherein de novo mutants are most likely to occur. Therapeutic regimens that maximize the duration of drug concentrations in excess of the MPC thereby minimize the potential for resistance development during the course of therapy.
Selection of resistance strains in vivo predominantly occurs over a range of drug concentrations falling between the MIC and MPC values. Dosing paradigms that result in plasma drug concentrations in excess of the MPC are therefore more desirable and effective in preventing the development of de novo mutants during the course of therapy (see, e.g., Drlica et al., J. Antimicrob. Chemother. 52:11-17, 2003). Currently approved treatment regimens for caspofungin, micafungin, and anidulafungin involve once-daily dosing at levels such that the Cmax is unlikely to be equivalent to or exceed the MPC at any point during treatment.

[3] = Plasma protein binding assumed for the simulations; assay type: in vitro ADME; settings: assumed for the Monte Carlo simulations
Experimental: (§1) Monte Carlo simulations were conducted to assess the probability of PK-pharmacodynamic (PD) target attainment using a variety of exploratory dosing regimens. Two dosing regimens were selected for further investigation (Table 5). […] Nonclinical studies of Candida albicans infections in mice have shown that a CD101 fAUC0-168:MIC ratio of 10 has been associated with a 2-log reduction in fungal burden in infected kidneys. This value of 10 was therefore chosen as the PK-PD target of interest for the Monte Carlo simulations.

Murine protein binding = assay type: in vitro ADME; settings: used to generate free-drug plasma concentrations
Candida albicans = assay: Nonclinical studies of Candida albicans infections in mice (PK-PD target); assay type: in vivo
Experimental: as §1

C. albicans (R357) = assay: Disseminated infection model with C. albicans R357, kidney fungal counts; assay type: in vivo, ICR mice
[4] = Pharmacokinetic study, single IP dose; assay type: in vivo, ICR mice; settings: 1 to 16 mg/kg IP
Experimental: Pharmacokinetic Study. Healthy female ICR mice were given a single dose of CD101 via intraperitoneal (IP) injection. The following doses, at three mice per dose, were studied: 1, 4, and 16 mg/kg.

[5] = PK model, free-drug plasma concentration-time profiles of fractionated regimens; parameters: species or system mice
Experimental: Pharmacokinetic-Pharmacodynamic Analyses. Using the data collected from the PK study, a PK model was developed in S-ADAPT. Using the developed PK model, concentration-time profiles and AUC0-168h values were computed for each dosing regimen administered in the dose-fractionation study. […] Relationships between the change in log10 CFU from start of therapy and AUC0-168h were explored.

[6] = test system: Aspergillus fumigatus (ATCC 13073); assay: Neutropenic mouse model of aspergillosis, survival; assay type: in vivo, mice; settings: 2 mg/kg IV or IP one dose; 10 days; P<0.05
C. auris isolates = assay: Candida auris antifungal susceptibility testing (AFST), CLSI M27-A3; assay type: cell-based
C. albicans [7] = settings: Sentry 2014; compared with MIC of 0.5 mg/L; cited from earlier work
glabrata = settings: Sentry 2014; compared with MIC of 0.5 mg/L; cited from earlier work
C. albicans [8] = assay: MIC by CLSI standards; settings: Candida albicans
C. glabrata [9] = assay: MIC by CLSI standards; settings: Nakaseomyces glabratus
C.albicans (Strain R303) [10] = assay: MIC of the infecting strain R303; settings: Candida albicans
C. glabrata [11] = assay: Neutropenic murine disseminated candidiasis model, PK/PD; settings: for 1 log kill dose / Static Dose: single IP dose, 7 days
[12] = Solubility of test articles in vehicle, visual observation; settings: 10% DMSO/1% Tween 20 in 0.9% NaCl; 0.3, 1 and 3 mg/mL
Experimental: Amphotericin B and fluconazole were in powder form. Amphotericin B was dissolved in 0.9% NaCl. Fluconazole was dissolved in water (WFI: water for injection).

C.albicans (Strain R303) [13] = assay: Dose-fractionation study in neutropenic mice, kidney fungal burden; settings: 2 mg/kg as a single dose IP, at 168 hours
Experimental: Dose-Fractionation Study. Male or female ICR mice (5 per regimen and observation time) weighing 22±2 g were rendered neutropenic for the study by injecting the mice with cyclophosphamide treatment four days (−Day 4) (150 mg/kg IP) and one day (−Day 1) prior to infection at 100 mg/kg IP. Neutropenia was sustained for the duration of the study with cyclophosphamide doses (100 mg/kg IP) every 48 hours on days +1, +3, +5 and +7 after infection.
Mice were sacrificed 168 hours (7 days) following the start of treatment. Control arm mice were sacrificed 0, 24, and 48 hours post administration of vehicle. Paired kidneys are aseptically harvested, homogenized, and plated for colony counts to determine the fungal burden (CFU/g).

CCCCCOc1ccc(-c2ccc(-c3ccc(C(=O)N[C@H]4C[C@@H](O)[C@@H](OCC[N+](C)(C)C)NC(=O)[C@@H]5[C@@H](O)[C@@H](C)CN5C(=O)[C@H]([C@@H](C)O)NC(=O)[C@H]([C@H](O)[C@@H](O)c5ccc(O)cc5)NC(=O)[C@@H]5C[C@@H](O)CN5C(=O)[C@H]([C@@H](C)O)NC4=O)cc3)cc2)cc1 [CD101] ({pTerphenylCO(4''-OnC5H11)}-[Orn(4R-OH,5R-OCH2CH2NMe3+)]T[Hyp][hTyr(3S-OH,4S-OH)]T[Pro(3S-OH,4S-Me)]; lactam 1-C)
MIC [1]: 0.125 µg/mL
MPC (C. glabrata [2]): 16 µg/mL
Plasma protein binding [3]: 99.1%
Murine protein binding value (Murine protein binding): 99.1%
fAUC0-168:MIC ratio associated with a 2-log reduction in fungal burden in infected kidneys (Candida albicans): 10
Antimicrobial effect versus vehicle (kidney fungal counts) (C. albicans (R357); 3, 10, and 30 mg/kg IP once, 48 and 72 hr after infection): Significant antimicrobial effects (P<0.05)
Reduction in fungal counts (C. albicans (R357); all CD101 groups (3, 10, 30 mg/kg IP), 48 and 72 hr): two log reduction
Linearity of PK [4]: linear PK
Time free-drug plasma concentrations of single dose remain above the daily regimen ([5]; 2 mg/kg total dose): 48 h
Time free-drug plasma concentrations of single dose remain above the twice weekly regimen ([5]; 2 mg/kg total dose): 84 h
Free-drug plasma AUC0≥ ([5]; CD101 2 mg/kg as a single dose): 0.0654 mgh/L
Free-drug plasma AUC0≥ ([5]; CD101 2 mg/kg total, daily regimen): 0.00948 mgh/L
Free-drug plasma AUC0≥ ([5]; CD101 2 mg/kg total, twice weekly): 0.0303 mgh/L
Survival versus vehicle [6]: significantly longer survival than vehicle
Activity in comparison (C. auris isolates; 38 C. auris isolates): activity similar to MICA
Breakthrough at 48 h (C. auris isolates; C. auris strains): not with CD101
Number of resistant C. auris isolates (C. auris isolates; of 38 isolates): 4
MIC90 (C. albicans [7]): 0.06 µg/mL
MIC90 (glabrata): 0.06 µg/mL
MIC (C. albicans [8]; C. albicans 98-17): 0.06 µg/mL
MIC (C. albicans [8]; C. albicans 98-210): 0.016 µg/mL
MIC (C. albicans [8]; C. albicans 580): 0.016 µg/mL
MIC (C. albicans [8]; C. albicans K-1): 0.008 µg/mL
MIC (C. albicans [8]; read-out: MICs, 4 C. albicans strains): 0.008 to 0.06 µg/mL
MIC (C. glabrata [9]; C. glabrata 5592): 0.06 µg/mL
MIC (C. glabrata [9]; C. glabrata 10956): 0.5 µg/mL
MIC (C. glabrata [9]; C. glabrata 35315): 0.25 µg/mL
MIC (C. glabrata [9]; read-out: MICs, 3 C. glabrata strains): 0.06 to 0.5 µg/mL
MIC (C.albicans (Strain R303) [10]): 0.125 µg/mL
1 log kill Ave 24 h AUC/MIC (C. glabrata [11]; C. glabrata 5592): 114
Stasis Ave 24 h AUC/MIC (C. glabrata [11]; C. glabrata 5592): 21.7
1 log kill dose (C. glabrata [11]; C. glabrata 5592): 0.51 mg/kg
Static Dose (C. glabrata [11]; C. glabrata 5592): 0.03 mg/kg
1 log kill Ave 24 h AUC/MIC (C. glabrata [11]; C. glabrata 10956): 301
Stasis Ave 24 h AUC/MIC (C. glabrata [11]; C. glabrata 10956): 120
1 log kill dose (C. glabrata [11]; C. glabrata 10956): 17.3 mg/kg
Static Dose (C. glabrata [11]; C. glabrata 10956): 6.29 mg/kg
1 log kill Ave 24 h AUC/MIC (C. glabrata [11]; C. glabrata 35315): 105
Stasis Ave 24 h AUC/MIC (C. glabrata [11]; C. glabrata 35315): 17.9
1 log kill dose (C. glabrata [11]; C. glabrata 35315): 2.39 mg/kg
Static Dose (C. glabrata [11]; C. glabrata 35315): 0.34 mg/kg
Solubility [12]: S
CFU reduction from baseline (C.albicans (Strain R303) [13]): greater than 2 log10 CFU
